According to patent publication US10314820B2, “Imidazole-based heterocyclic compounds” (priority 2014, dated 2019):

What was measured:
[1] = tested on: Human hepatocytes (HepaRG cells); assay: Human cytotoxicity assay in vitro (CellTiter-Glo), hepatocytes; assay type: cell-based; details: hepatocyte cytotoxicity score; 24 h exposure
[2] = tested on: Human keratinocytes (HaCaT cells); assay: Human cytotoxicity assay in vitro (CellTiter-Glo), keratinocytes; assay type: cell-based; details: keratinocyte cytotoxicity score; 24 h exposure

Compound	cytotoxicity cell line H [1]	cytotoxicity cell line K [2]
Cc1[nH]c(-c2ccc(-c3ccc(Cl)cc3)s2)nc1-c1ccccc1 [Compound 6]	0 (compounds without signs of cell viability loss at concentrations of 50 μM or higher)	0 (compounds not causing loss of cell viability at concentrations of 50 μM or higher)
Cc1[nH]c(-c2ccc(-c3ccc(F)cc3)s2)nc1-c1ccccc1 [Compound 7]	1 (compounds not causing a loss of viability at concentrations between 25 and 50 μM)	2 (compounds causing>50% inhibition of cell viability at 25 μM)
Cc1[nH]c(-c2cc(C)n(-c3ccc(Cl)cc3)c2C)nc1-c1ccccc1 [Compound 8]	2	1 (compounds causing less than 50% inhibition of cell viability at 50 μM)
Cc1[nH]c(-c2cc(C)n(-c3ccc(F)cc3F)c2C)nc1-c1ccccc1 [Compound 9]	3	2 (compounds causing>50% inhibition of cell viability at 25 μM)
Cc1[nH]c(-c2cc(C)n(-c3ccc(F)c(F)c3F)c2C)nc1-c1ccccc1 [Compound 10]	3	2 (compounds causing>50% inhibition of cell viability at 25 μM)
Cc1[nH]c(-c2csc(-c3ccc(F)cc3)n2)nc1-c1ccccc1 [Compound 11]	1 (compounds not causing a loss of viability at concentrations between 25 and 50 μM)	2 (compounds causing>50% inhibition of cell viability at 25 μM)
Cc1[nH]c(-c2ccc(-c3cccc(Cl)c3)s2)nc1-c1ccccc1 [Compound 12]	1 (compounds not causing a loss of viability at concentrations between 25 and 50 μM)	2 (compounds causing>50% inhibition of cell viability at 25 μM)
Cc1[nH]c(-c2ccc(-c3cccc(Br)c3)s2)nc1-c1ccccc1 [Compound 13]	1 (compounds not causing a loss of viability at concentrations between 25 and 50 μM)	1 (compounds causing less than 50% inhibition of cell viability at 50 μM)
Cc1[nH]c(-c2csc(-c3cccc(Br)c3)n2)nc1-c1ccccc1 [Compound 14]	1 (compounds not causing a loss of viability at concentrations between 25 and 50 μM)	1 (compounds causing less than 50% inhibition of cell viability at 50 μM)
Cc1nc(-c2ccc(-c3ccc(Cl)cc3Cl)o2)[nH]c1-c1ccc(F)cc1 [Compound 16]	3	1 (compounds causing less than 50% inhibition of cell viability at 50 μM)
Cc1nc(-c2ccc(-c3ccccc3C(F)(F)F)o2)[nH]c1-c1ccccc1Cl [Compound 20]	3	0 (compounds not causing loss of cell viability at concentrations of 50 μM or higher)
Cc1nc(-c2ccc(-c3ccccc3OC(F)(F)F)o2)[nH]c1-c1cccc(Cl)c1 [Compound 21]	3	2 (compounds causing>50% inhibition of cell viability at 25 μM)
Cc1[nH]c(-c2ccc(-c3ccccc3C(F)(F)F)o2)nc1-c1cccc(Cl)c1 [Compound 22]	–	2 (compounds causing>50% inhibition of cell viability at 25 μM)
Cc1[nH]c(-c2ccc(-c3ccccc3C(F)(F)F)o2)nc1-c1ccc(Br)cc1 [Compound 25]	0 (compounds without signs of cell viability loss at concentrations of 50 μM or higher)	0 (compounds not causing loss of cell viability at concentrations of 50 μM or higher)
Cc1[nH]c(-c2ccc(-c3ccccc3OC(F)(F)F)o2)nc1-c1ccc(C(F)(F)F)cc1 [Compound 26]	1 (compounds not causing a loss of viability at concentrations between 25 and 50 μM)	0 (compounds not causing loss of cell viability at concentrations of 50 μM or higher)
C#Cc1ccc(-c2nc(-c3ccc(-c4ccccc4C(F)(F)F)o3)[nH]c2C)cc1 [Compound 27]	1 (compounds not causing a loss of viability at concentrations between 25 and 50 μM)	2 (compounds causing>50% inhibition of cell viability at 25 μM)
CCc1ccc(-c2[nH]c(-c3ccc(-c4ccccc4C(F)(F)F)o3)nc2C)cc1 [Compound 28]	1 (compounds not causing a loss of viability at concentrations between 25 and 50 μM)	0 (compounds not causing loss of cell viability at concentrations of 50 μM or higher)
Cc1[nH]c(-c2ccc(-c3ccccc3OC(F)(F)F)o2)nc1Cc1ccc(Br)cc1 [Compound 30, 4-(4-Bromo-benzyl)-5-methyl-2-[5-(2-trifluoromethoxy-phenyl)-furan-2-yl]-1H-imidazole]	3	3 (compounds causing more than 50% inhibition of cell viability at 10 μM)
Cc1[nH]c(-c2ccn(-c3ccccc3C(F)(F)F)c2)nc1-c1ccccc1 [Compound 33]	–	3 (compounds causing more than 50% inhibition of cell viability at 10 μM)

Compound	cytotoxicity cell line H [1]	cytotoxicity cell line K [2]
Cc1[nH]c(-c2cc(C)n(-c3cccc(C(F)(F)F)c3)c2C)nc1-c1ccccc1 [Compound 36]	3	2 (compounds causing>50% inhibition of cell viability at 25 μM)
Cc1nc(-c2ccc(-c3cccc(OC(F)(F)F)c3)o2)[nH]c1-c1ccc(F)cc1 [Compound 37]	3	2 (compounds causing>50% inhibition of cell viability at 25 μM)
Cc1[nH]c(-c2ccc(-c3cccc(C(F)(F)F)c3)o2)nc1-c1ccc(F)cc1 [Compound 38]	1 (compounds not causing a loss of viability at concentrations between 25 and 50 μM)	2 (compounds causing>50% inhibition of cell viability at 25 μM)
Cc1nc(-c2ccc(-c3ccc(Cl)c(OC(F)(F)F)c3)o2)[nH]c1-c1ccc(F)cc1 [Compound 43]	3	–
Cc1[nH]c(-c2ccc(-c3ccc(C(F)(F)F)cc3)s2)nc1-c1ccccc1 [Compound 46]	1 (compounds not causing a loss of viability at concentrations between 25 and 50 μM)	1 (compounds causing less than 50% inhibition of cell viability at 50 μM)
Cc1[nH]c(-c2ccc(-c3ccc(OC(F)(F)F)cc3)o2)nc1-c1ccc(Cl)cc1 [Compound 48]	2	1 (compounds causing less than 50% inhibition of cell viability at 50 μM)
Cc1[nH]c(-c2ccc(-c3ccc(OC(F)(F)F)cc3Cl)o2)nc1-c1ccc(F)cc1 [Compound 51]	3	3 (compounds causing more than 50% inhibition of cell viability at 10 μM)
Cc1ccc(-c2ccc(-c3nc(-c4ccccc4)c(C)[nH]3)s2)cc1 [Compound 54]	1 (compounds not causing a loss of viability at concentrations between 25 and 50 μM)	1 (compounds causing less than 50% inhibition of cell viability at 50 μM)
Cc1ccc(-c2ncc(-c3nc(-c4ccccc4)c(C)[nH]3)s2)cc1 [Compound 55]	1 (compounds not causing a loss of viability at concentrations between 25 and 50 μM)	–
Cc1ccc(-c2nc(-c3nc(-c4ccccc4)c(C)[nH]3)cs2)cc1 [Compound 56]	1 (compounds not causing a loss of viability at concentrations between 25 and 50 μM)	3 (compounds causing more than 50% inhibition of cell viability at 10 μM)
Cc1ccc(-c2nc(-c3nc(-c4ccccc4)c(C)[nH]3)co2)cc1 [Compound 57]	1 (compounds not causing a loss of viability at concentrations between 25 and 50 μM)	3 (compounds causing more than 50% inhibition of cell viability at 10 μM)
Cc1[nH]c(-c2cc(C)n(-c3ccc(C(C)C)cc3)c2C)nc1-c1ccccc1 [Compound 58]	3	2 (compounds causing>50% inhibition of cell viability at 25 μM)
Cc1[nH]c(-c2cc(C)n(-c3ccc4c(c3)CCC4)c2C)nc1-c1ccccc1 [Compound 59]	2	2 (compounds causing>50% inhibition of cell viability at 25 μM)
FC(F)(F)Oc1ccccc1-c1ccc(-c2ncc(-c3ccccc3)[nH]2)o1 [Compound 63]	2	–
FC(F)(F)c1ccccc1-c1ccc(-c2nc(Cl)c(-c3ccccc3)[nH]2)o1 [Compound 65]	2	–
FC(F)(F)Oc1ccccc1-c1ccc(-c2nc(-c3ccccc3Cl)c[nH]2)o1 [Compound 67]	2	2 (compounds causing>50% inhibition of cell viability at 25 μM)
FC(F)(F)Oc1ccccc1-c1ccc(-c2nc(-c3ccc(Cl)cc3Cl)c[nH]2)o1 [Compound 68]	2	2 (compounds causing>50% inhibition of cell viability at 25 μM)
Cc1[nH]c(-c2coc(-c3ccccc3C(F)(F)F)c2)nc1-c1ccccc1 [Compound 72]	3	2 (compounds causing>50% inhibition of cell viability at 25 μM)
